Source: US20090270476A1, “PHARMACEUTICAL COMPOSITION FOR TREATMENT OR PREVENTION OF NEPHRITIS AND MANUFACTURING METHOD THEREOF” (priority 2005, published 2009)
“Also recorded” adds a separate entry of the source.

Columns and labels:
Type in all cases: in vivo, Wister rats
nephritis model rat [1] = assay: Effects of orniplabin on urinary protein, lipid peroxide in blood and organomegaly in nephritis model rat
Experimental: Three-week-old male Wister rats (Charles River) were raised for 6 days with pellet diet (CE-2, Nihon Crea) and then raised with the 20% casein diet for 5 days to be subjected to the experiment. The animals were raised at approximately 22° C., with relative humidity […] under lighting from 8:00 to 20:00.
(§1) 0.6 mL of Anti-rat-glomerular basement membrance rabbit serum was administered into the caudal vein. Next day rabbit γ-globulin (Sigma), and 8 mg/0.2 mL Freund's complete adjuvant (Wako Junyaku) were subcutaneously injected into hinder leg's footpad to cause nephritis (nephritis model rat).
Since anti-serum was injected, the body weight and feed intake were measured every morning and urinary proteins of 24-hour urine was measured every other day, specifically urine was collected in a flask from 9 AM of the day before to 9 AM of the day and the measurement was carried out using commercial protein measurement kit (Bio-Rad, Protein Assay, Bio-Rad). (Refer to Biosci. Biotechnol. Biochem., 65, 1155-1162 (2001))
(§2) The urinary proteins were measured three days after the injection of anti-serum and the rats were grouped according to the measurement values. An orniplabin solution equivalent to 5 mg/Kg concentration was intrapenitoneally injected everyday to the orniplabin administration group since then. Nothing was injected to the control group. Rats of respective groups were dissected to remove blood, liver and kidneys 14 days after nephritis was induced, and weights of the removed materials were measured. Further lipid peroxides of a part of blood obtained were measured using a commercial measurement kit (Wako Junyaku). The normal group represents the untreated group, the control group represents—the nephritis-induced group and SMTP group represents the orniplabin-injected group. Student's t-test of significant difference between two groups was carried out as the level significance is 0.05. Tukey's multiple comparison method was used for the testing of significance between three groups. The data associated with the amount of urinary proteins and the weight of organs are treated with the scale per 100 g of body weight as a benchmark.

nephritis model rat [2] = assay: Observation of PAS-stained kidney histologic sections and nephritis score
Experimental: Section samples were prepared from three animals selected according to the variation of urinary protein in respective groups. Periodic acid Schiff (PAS) staining was conducted on the kidney histologic section.
A procedure for PAS staining was; slicing a sampler washing the sample with water after paraffin-removal, soaking the sample in a solution of 1% periodic acid for 10 minutes, and washing again the sample with water; soaking the histologic section prepared in Schiff reagent for 10 to 15 minutes, washing the sample in a staining bat three times for 3 minutes, total for 9 minutes, and washing the sample with water; and then staining the sample with hematoxylin for 1 minute, washing the sample with warm water for 10 minutes, dehydrating and penetrating the sample and then sealing the sample.
Observation of the histologic sample was conducted on renal glomerulus using a microscope with 200× magnifications. The bar in Figs is corresponding to 50 μm.
Fifty (50) glomeruli every three samples of each group were ranked according to damaged levels. The ranks were from normal (rank 1) to the most progressed damage (rank 5) and five grades according to damages were given to provide a score. The average of the scores was decided as the score of the sample (nephritis score).

nephritis model rat [3] = assay: Effects of orniplabin administration on plasma components in nephritis model rat
Experimental: as §1, §2
Further effects of orniplabin administration on plasma components were investigated by measuring a variety of concentrations of plasma component, (Normal group, n=6; control group, n=10; and orniplabin-injected group, n=6) The following plasma components were measured; lactate dehydrogenase (LD; PureAuto S LD), […] amino transferase (AST AutoSera S AST), alanine aminotransferase (ALT: AutoSera S ALT), creatine phosphate kinase (CPK; PureAuto S CK), alkaline phosphatase (ALP; AutoSera S ALP), γ-glutamyl transpeptidase (γ-GTP; PureAuto S γ-GT), total bilirubin (BIL: AutoSera BIL-2), glucose (GLU; PureAuto S GLU-R), triglyceride (TG; AutoSera S TG-N), total cholesterol (T-CHO; Choletest CHO), phospholipid (PL; PureAuto S PL), total protein (TP; AutoSera TP), urea nitrogen (UN; PureAuto S UN), albumin (ALB; AutoSera ALB), calcium (CA; AutoSera CA), inorganic phosphoric acid (IP; Clini mate IP-2), (Daiichi Chemical), creatinine (CRE-S; AccursAuto CRE, Sinotest), acetoacetic acid (ACAC; Ketone Test A Sanwa liquid, Sanwa Science Laboratories), 3-hydroxy butyric acid (OHBA; Ketone Test B Sanwa liquidA Sanwa Science Laboratories), free fafty acids (NEFA; AutoSera R NEFA (Daiichi Chemical) and HDL cholesterol (HDL; Cholest-R N HDL (Daichi Chemical) were used to measure. Further Hitachi Amino acid automatic analyzer 7180 (Hitachi) was used.
The comparison results between the control group and the orniplabin-injected group, and the normal group of which average value is as 1 are shown in FIG. 5 to FIG. 8.

[4] = 5 mg/Kg intraperitoneal everyday
[5] = 5 mg/Kg intraperitoneal everyday, 14 days after nephritis induction, weight per 100 g body weight
[6] = renal glomerulus, PAS staining, orniplabin-injected group
[7] = decrease by induction of nephritis
[8] = orniplabin-injected group vs control group

Structure (SMILES): CC(C)=CCC/C(C)=C/CC[C@@]1(C)Oc2c(c(O)cc3c2CN(CCC[C@@H](C(=O)O)N2Cc4c(cc(O)c5c4O[C@](C)(CC/C=C(\C)CCC=C(C)C)[C@H](O)C5)C2=O)C3=O)C[C@H]1O [orniplabin]
- food intake (nephritis model rat [1]; [4]): without affecting
- increase of body weight (nephritis model rat [1]; [4]): without affecting
- urinary proteins (nephritis model rat [1]; 5 mg/Kg intraperitoneal everyday from day 3, 24-hour urine, vs control group): decreased
- lipid peroxides in serum (nephritis model rat [1]; 5 mg/Kg intraperitoneal everyday, 14 days after nephritis induction, vs control group): decreased
- hypertrophy of kidneys (nephritis model rat [1]; [5]): suppressed
- hypertrophy of liver (nephritis model rat [1]; [5]): suppressed
- nephritis score (nephritis model rat [2]; 50 glomeruli per sample, three samples, rank 1 (normal) to rank 5 (most progressed damage), control group 3.80±0.13): 2.77±0.04
- abnormal histologic hypertrophy of proximal convoluted tubule tissue (nephritis model rat [2]; PAS staining, orniplabin-injected group): not observed
- crescent formation (nephritis model rat [2]; [6]): low level crescent formation
- mesangium proliferation (nephritis model rat [2]; [6]): almost no mesangium proliferation
- concentration of BIL in plasma (nephritis model rat [3]; [7]): prevented or these concentrations were recovered
- concentration of CA in plasma (nephritis model rat [3]; [7]): prevented or these concentrations were recovered
- concentration of GLU in plasma (nephritis model rat [3]; [7]): prevented or these concentrations were recovered
- concentration of IP in plasma (nephritis model rat [3]; [7]): prevented or these concentrations were recovered
- concentration of TP (total proteins) in plasma (nephritis model rat [3]; orniplabin-injected group): recovered to the normal level
- concentration of ACAC in plasma (nephritis model rat [3]; [8]): lower than that of the control group
- concentration of ALB in plasma (nephritis model rat [3]; [8]): almost not different
- concentration of ALP in plasma (nephritis model rat [3]; [8]): not significantly different
- concentration of ALT in plasma (nephritis model rat [3]; [8]): not significantly different
- concentration of AST in plasma (nephritis model rat [3]; [8]): not significantly different
- concentration of CRE-S in plasma (nephritis model rat [3]; [8]): almost not different
- concentration of HDL in plasma (nephritis model rat [3]; [8]): in decreasing trend
- concentration of LD in plasma (nephritis model rat [3]; [8]): not significantly different
- concentration of OHBA in plasma (nephritis model rat [3]; [8]): prevented or these concentrations were recovered; also recorded: higher than that of the control group
- concentration of OK in plasma (nephritis model rat [3]; [8]): not significantly different
- concentration of PL in plasma (nephritis model rat [3]; [8]): in decreasing trend
- concentration of T-CHO in plasma (nephritis model rat [3]; [8]): in decreasing trend
- concentration of TG in plasma (nephritis model rat [3]; [8]): significantly decreased
- concentration of UN in plasma (nephritis model rat [3]; [8]): almost not different
- concentration of γ-GTP in plasma (nephritis model rat [3]; [8]): not significantly different
